Source: ChEMBL document CHEMBL1151768, “Resin glycoside constituents of Ipomoea pes-caprae (beach morning glory)” (J Nat Prod, 2008)
Calls of active or inactive are those of the source.

What was measured:
Bel-7402 = experiment: Cytotoxicity against human BEL-7402 cells by SRB method; format: functional, cell-based
A549 = experiment: Cytotoxicity against human A549 cells by SRB method; format: functional, cell-based
Escherichia coli = experiment: Antimicrobial activity against Escherichia coli by agar dilution method; format: functional, organism-based
HL-60 = experiment: Cytotoxicity against human HL60 cells by MTT assay; format: functional, cell-based
Staphylococcus aureus = experiment: Antimicrobial activity against Staphylococcus aureus by agar dilution method; format: functional, organism-based
P388 = experiment: Cytotoxicity against mouse P388 cells by MTT assay; format: functional, cell-based
[1] = target: Mu-type opioid receptor (Rattus norvegicus) (UniProt P33535); experiment: Displacement of [3H]DAMGO from rat mu opioid receptor expressed in GH3 cells; format: cell-based
Chain of Mu-type opioid receptor (Rattus norvegicus) (P33535 whole entry): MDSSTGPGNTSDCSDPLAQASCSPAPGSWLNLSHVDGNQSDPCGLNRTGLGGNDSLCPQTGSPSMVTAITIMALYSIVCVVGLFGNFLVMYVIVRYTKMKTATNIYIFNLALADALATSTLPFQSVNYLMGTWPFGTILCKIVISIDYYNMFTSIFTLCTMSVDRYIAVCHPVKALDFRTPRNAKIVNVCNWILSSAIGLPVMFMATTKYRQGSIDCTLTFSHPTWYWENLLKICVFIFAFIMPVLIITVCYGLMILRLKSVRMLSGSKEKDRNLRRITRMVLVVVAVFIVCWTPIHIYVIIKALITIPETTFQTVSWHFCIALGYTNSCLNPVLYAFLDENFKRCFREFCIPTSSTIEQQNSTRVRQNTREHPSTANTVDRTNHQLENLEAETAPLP

Klebsiella aerogenes = experiment: Antimicrobial activity against Enterobacter aerogenes by agar dilution method; format: functional, organism-based
Bacillus subtilis = experiment: Antimicrobial activity against Bacillus subtilis by agar dilution method; format: functional, organism-based
Candida albicans = experiment: Antimicrobial activity against Candida albicans by agar dilution method; format: functional, organism-based

Measured: Activity

CCCCCCCCCC(=O)O[C@H]1[C@H](O[C@@H]2[C@@H](O)[C@H]3OC(=O)CCCCCCCCCC[C@H](CCCCC)O[C@@H]4O[C@H](C)[C@H](O)[C@H](O)[C@H]4O[C@@H]3O[C@H]2C)O[C@@H](C)[C@H](O[C@@H]2O[C@@H](C)[C@H](OC(=O)C(C)C)[C@@H](OC(=O)/C=C/c3ccccc3)[C@H]2O)[C@H]1O[C@@H]1O[C@@H](C)[C@H](O)[C@@H](O)[C@H]1O
inactive: all assays above
